From ChEMBL document CHEMBL1944549, “Small molecule inhibitors of BRAF in clinical trials” (Bioorg Med Chem Lett, 2012)
Values belong to the compound of their own block, whether it stands above or below them.

Columns and labels:
HCT-116 = assay: Growth inhibition of human HCT116 cells expressing wild-type B-Raf and K-Ras2 G13D mutant after 72 hrs by WST-1 assay; format: functional, cell-based; details: HCT-116, 72 h
SK-MEL-2 = assay: Growth inhibition of human SK-MEL-2 cells expressing wild-type B-Raf and N-Ras2 Q61R mutant after 72 hrs by WST-1 assay; format: functional, cell-based; details: SK-MEL-2, 72 h
[1] = Antitumor activity against human melanoma cells harboring patient assessed as increase in survival of patient at 1000 mg/kg, iv administered 3 times a week; format: functional; details: Melanoma cell
[2] = Antitumor activity against human melanoma cells assessed as increase in survival of patient at […], po administered BID; format: functional; details: Melanoma cell
[3] = Toxicity in po dosed cancer patient bearing B-Raf V600E mutation administered BID; format: organism-based; details: human, in vivo

EC50 (HCT-116): 1100 nM
EC50 (SK-MEL-2): 1100 nM
Compound: CN(C)CCOc1ccc(-c2nc(-c3ccncc3)c(-c3ccc4c(c3)CC/C4=N\O)[nH]2)cc1 [SB590885]

Compound: CC(C)(C)c1nc(-c2cccc(NS(=O)(=O)c3c(F)cccc3F)c2F)c(-c2ccnc(N)n2)s1 [DABRAFENIB]
survival at 1000 mg/kg [1]: 64%

Compound: CCCS(=O)(=O)Nc1ccc(F)c(C(=O)c2c[nH]c3ncc(-c4ccc(Cl)cc4)cc23)c1F [VEMURAFENIB]
survival [2]: 84%
MTD [3]: 960 mg
